Results taken from patent publication US7541020B2, “Aminoalkyl glucosaminide phosphate compounds and their use as adjuvants and immunoeffectors” (priority 1997, dated 2009).
Values joined by “and” are separate entries in the source; they are usually repeats but may differ in a detail not shown here. Equal values may be shown once. Read-outs that look alike come from different tables or passages of the source.

How the values were obtained:
[1] = system: influenza A/HK/68; settings: mouse, in vivo
[2] = system: hepatitis B surface antigen (HBsAg); assay: Vaginal wash anti-HBsAg antibody after intranasal HBsAg + AGP-AF; assay type: in vivo, BALB/c mice; settings: 10 days after the booster immunization; intranasal HBsAg + 10 μg AGP-AF
Description: Vaginal samples were collected 10 days after the booster immunization and assayed for anti-HBsAg antibody.

[3] = system: hepatitis B surface antigen (HBsAg); assay: Serum anti-HBsAg antibody titers after intranasal HBsAg + AGP-AF (ELISA); assay type: in vivo, BALB/c mice; settings: for Anti HBsAg Titer^−1 IgG1 / Anti HBsAg Titer^−1 IgG2a: K = 10^3
[4] = system: Hepatitis B surface antigen; assay: Randomized controlled clinical study of AgB/RC-210-04 versus AgB: seroprotection, seroconversion, anti-HBsAg titers; assay type: in vivo, human; settings: healthy adults; RC-210-04 added to AgB
[5] = system: hepatitis B surface antigen (HBsAg); assay: Anti-HBsAg antibody titer with AGP-SE (ELISA plates coated with HBsAg or p72 peptide); settings: sera day 28 post 2°, 25 μg AGP-SE; for Anti-HBsAg Titer^−1 HBsAg IgG1 / Anti-HBsAg Titer^−1 HBsAg IgG2a: ELISA plates coated with HBsAg; for Anti-HBsAg Titer^−1 p72-Peptide IgG1 / Anti-HBsAg Titer^−1 p72-Peptide IgG2a: ELISA plates coated with p72 peptide
[6] = system: influenza A/HK/68; settings: mouse, in vivo; remark: listed apart in the source
[7] = system: tetanus toxoid; settings: mouse, in vivo
[8] = system: influenza A/HK/68; assay type: in vivo, BALB/c mice; settings: mouse, in vivo
[9] = system: ovalbumin; assay: Stimulation of antiovalbumin antibody production; assay type: in vivo, BDF1 female mice; settings: 50 μg AGP + 50 μg ovalbumin; second immunization day 21; bled 14 days after second injection
Procedure: BDF1 female mice (8 per group) were immunized with 0.2 ml of emulsions containing 50 μg of the AGPs +50 μg of ovalbumin. A second immunization was administered 21 days post primary. Each mouse was bled 14 days after the second injection.

[10] = system: influenza A/HK/68; parameters: species or system ICR mice; settings: mouse, in vivo
[11] = system: E.G7 (OVA) cells; settings: s.c. 25 μg OVA in AGP preparation, spleen cells 21 days later
[12] = system: hepatitis B surface antigen (HBsAg); settings: for % Cytotoxicity (d16, post 2°): HBsAg + 10 μg AGP-AF intranasally; for % Cytotoxicity (d8, post 3°): intranasal HBsAg + 10 μg AGP-AF
[13] = Fever response in rabbits (pyrogenicity); assay type: in vivo; settings: 10 ug/kg; cumulative rise ≥1.5 degree in three rabbits is considered pyrogenic
Procedure: The AGP compounds were also evaluated for their tendency to induce a fever response in rabbits. Each compound was formulated in 10% (v/v) ethanol/water solution at 100 mg/ml, then diluted with D5W to the desired concentration. The material was injected at 3 ml/kg body weight into 3 rabbits. The rise in core temperature of the rabbits was recorded.

[14] = system: hepatitis B surface antigen (HBsAg); assay: Cytotoxic T-lymphocyte response to HBsAg with AGP in stable emulsion (AGP-SE); settings: s.c. 2.0 μg HBsAg + 25 μg AGP/SE
[15] = system: tetanus toxoid; settings: mouse, in vivo, sc
[16] = day 22 post 2°, HBsAg + 10 μg AGP-AF intranasally
[17] = serum, day 21 post 3°, intranasal HBsAg + 10 μg AGP-AF

With “2-[(R)-3-Hexanoyloxytetradecanoylamino]ethyl2-Deoxy-4-O-phosphono-3-O-[(R)-3-hexanoyloxytetradecanoyl]-2-[(R)-3-hexanoyloxytetradecanoylamino]-α-D-glucopyranoside Triethylammonium Salt [B31]” the “Anti-influenza serum titers IgG” value [1] was 3200, the “Anti-influenza serum titers IgG1” value [1] was 1600 and the “Anti-influenza serum titers IgG2a” value [1] was 400. The “Anti-influenza serum titers IgG2b” value [1] was 1600 and the Protection [1] was 70.

With “2-[(R)-3-Tetradecanoyloxytetradecanoylamino]ethyl 2-Deoxy-4-O-phosphono-3-O-[(R)-3-tetradecanoyoxytetradecanoyl]-2-[(R)-3-tetradecanoyoxytetradecanoylamino]-β-D-glucopyranoside Triethylammonium Salt [B19]” the “Vaginal Wash Anti-HBsAg Titer^−1 IgA” value [2] was 400, the “Vaginal Wash Anti-HBsAg Titer^−1 IgG” value [2] was less than 50 and the “Anti HBsAg Titer^−1 IgA” value [3, 16] was 1,600. For the same substance, the “Anti HBsAg Titer^−1 IgG1” value [3, 16] was 500K, the “Anti HBsAg Titer^−1 IgG2a” value [3, 16] was 64K and the “Anti HBsAg Titer^−1 IgG1” value [3, 17] was 2000K. The “Anti HBsAg Titer^−1 IgG2a” value [3, 17] was 500K, the “Anti HBsAg Titer^−1 IgA” value [3, 17] was 12,800 and the “antibody responses to Hepatitis B surface antigen (in words)” value [4] was “faster and greater antibody responses”. For the same substance, the “Anti-HBsAg Titer^−1 HBsAg IgG1” value [5] was 1024K, the “Anti-HBsAg Titer^−1 HBsAg IgG2a” value [5] was 1024K and the “Anti-HBsAg Titer^−1 p72-Peptide IgG1” value [5] was 64K. For the same substance, the “Anti-HBsAg Titer^−1 p72-Peptide IgG2a” value [5] was 128K, the “Percent Survival” value [6] was 50% and the “Titer−1 IgG1” value [6] was 100. For the same substance, the “Titer−1 IgG2a” value [6] was 800, the “Titer−1 IgG2b” value [6] was 6400 and the “Titer−1 Total IgG” value [6] was 12,800. The “Anti-Tetanus Toxoid Titer^−1 Fecal Extract IgA” value [7] was 3200 and 6400, the “Anti-Tetanus Toxoid Titer^−1 Fecal Extract IgG” value [7] was 25 and the “Anti-Tetanus Toxoid Titer^−1 Serum Pools IgG1” value [7] was 2M and 4M. For the same substance, the “Anti-Tetanus Toxoid Titer^−1 Vaginal Wash IgA” value [7] was 1600 and 3200 and the “Anti-Tetanus Toxoid Titer^−1 Vaginal Wash IgG” value [7] was 200 and 400.

In the case of “N-[(R)-3-Decanoyloxytetradecanoyl]-O-[2-deoxy-4-O-phosphono-2-[(R)-3-decanoyloxytetradecanoylamino]-3-O-[(R)-3-decanoyloxytetradecanoyl]-β-D-glucopyranosyl]-L-serinamide Triethylammonium Salt [B25]”, the “Vaginal Wash Anti-HBsAg Titer^−1 IgA” value [2] is reported as 800, the “Vaginal Wash Anti-HBsAg Titer^−1 IgG” value [2] is reported as 100 and the “Anti-influenza Titer^−1 IgG1” value [8] is reported as 1600. The “Anti-influenza Titer^−1 IgG2a” value [8] was 6400, the “Anti-influenza Titer^−1 IgG2b” value [8] was 1600 and the “Anti-influenza Titer^−1 Total IgG” value [8] was 3200. The “Percent Survival” value [8] was 100%, the “Anti HBsAg Titer^−1 IgA” value [3, 16] was 3,200 and the “Anti HBsAg Titer^−1 IgG1” value [3, 16] was 256K#. For the same substance, the “Anti HBsAg Titer^−1 IgG2a” value [3, 16] was 500K, the “Anti HBsAg Titer^−1 IgG1” value [3, 17] was 1000K# and the “Anti HBsAg Titer^−1 IgG2a” value [3, 17] was 1000K. For the same substance, the “Anti HBsAg Titer^−1 IgA” value [3, 17] was 25,600, the “Anti-ovalbumin IgG1 T/C” value [9] was 5.2 and the “Anti-ovalbumin IgG1 Titer” value [9] was 8500. For the same substance, the “Anti-ovalbumin IgG2a T/C” value [9] was 0.5, the “Anti-ovalbumin IgG2a Titer” value [9] was 163 and the “Anti-ovalbumin IgG2b T/C” value [9] was 5.0. The “Anti-ovalbumin IgG2b Titer” value [9] was 1188, the “Anti-ovalbumin IgM T/C” value [9] was 0.8 and the “Anti-ovalbumin IgM Titer” value [9] was 150. For the same substance, the “Anti-ovalbumin Total Ig T/C” value [9] was 1.9, the “Anti-ovalbumin Total Ig Titer” value [9] was 438 and the “Percent Protection” value [10] was 100%. The “Serum Titers IgG1” value [10] was 102,400, the “Serum Titers IgG2a” value [10] was 819,200 and the “Serum Titers IgG2b” value [10] was “≧819,200”. The “Serum Titers Total IgG” value [10] was “≧819,200”, the “Vaginal Wash Samples IgA Secondary” value [10] was 1280 and the “Vaginal Wash Samples IgA Tertiary” value [10] was 1280. For the same substance, the “Vaginal Wash Samples IgG Secondary” value [10] was 640, the “Vaginal Wash Samples IgG Tertiary” value [10] was 2560 and the “% Cytotoxicity” value ([11]; E:T 12.5:1) was 43%. For the same substance, the “% Cytotoxicity” value ([11]; E:T 25:1) was 55%, the “% Cytotoxicity” value ([11]; E:T 50:1) was 65% and the “% Cytotoxicity (d16, post 2°)” value ([12]; E/T 6.25:1) was 9%. The “% Cytotoxicity (d8, post 3°)” value ([12]; E/T 6.25:1) was 8%, the “% Cytotoxicity (d16, post 2°)” value ([12]; E/T 12.5:1) was 13% and the “% Cytotoxicity (d8, post 3°)” value ([12]; E/T 12.5:1) was 13%. For the same substance, the “% Cytotoxicity (d16, post 2°)” value ([12]; E/T 25:1) was 20%, the “% Cytotoxicity (d8, post 3°)” value ([12]; E/T 25:1) was 19% and the “% Cytotoxicity (d16, post 2°)” value ([12]; E/T 50:1) was 36%. For the same substance, the “% Cytotoxicity (d8, post 3°)” value ([12]; E/T 50:1) was 30%, the “PYROGENICITY Total Rise ° C., 3 rabbits” value [13] was 4.2 °C and the “Anti-HBsAg Titer^−1 HBsAg IgG1” value [5] was 2048K*. For the same substance, the “Anti-HBsAg Titer^−1 HBsAg IgG2a” value [5] was 2048K, the “Anti-HBsAg Titer^−1 p72-Peptide IgG1” value [5] was 128K and the “Anti-HBsAg Titer^−1 p72-Peptide IgG2a” value [5] was 64K. For the same substance, the “% Cytotoxicity” value ([14]; d16, post 2°, E:T 6.25:1) was 13%, the “% Cytotoxicity” value ([14]; d16, post 2°, E:T 12.5:1) was 20% and the “% Cytotoxicity” value ([14]; d16, post 2°, E:T 25:1) was 28%. The “% Cytotoxicity” value ([14]; d16, post 2°, E:T 50:1) was 49%, the “% Cytotoxicity” value ([14]; d17, post 1°, E:T 6.25:1) was 5% and the “% Cytotoxicity” value ([14]; d17, post 1°, E:T 12.5:1) was 9%. The “% Cytotoxicity” value ([14]; d17, post 1°, E:T 25:1) was 12%, the “% Cytotoxicity” value ([14]; d17, post 1°, E:T 50:1) was 27% and the “Anti-tetanus toxoid IgG1 T/C” value [15] was 2.68. The “Anti-tetanus toxoid IgG1 Titer” value [15] was 576,000, the “Anti-tetanus toxoid IgG2a T/C” value [15] was 1.67 and the “Anti-tetanus toxoid IgG2a Titer” value [15] was 8,500. For the same substance, the “Anti-tetanus toxoid IgG2b T/C” value [15] was 3.28, the “Anti-tetanus toxoid IgG2b Titer” value [15] was 94,400 and the “Anti-tetanus toxoid IgM T/C” value [15] was 2.0. For the same substance, the “Anti-tetanus toxoid IgM Titer” value [15] was 3,200, the “Anti-tetanus toxoid Total IgG T/C” value [15] was 8.93 and the “Anti-tetanus toxoid Total IgG Titer” value [15] was 57,600. The “Anti-Tetanus Toxoid Titer^−1 Fecal Extract IgA” value [7] was 3200 and 6400 and the “Anti-Tetanus Toxoid Titer^−1 Vaginal Wash IgA” value [7] was 6400.
